Assay results as given in a melting point compilation (Tetko et al.; mined from patent text by program, amines drawn as free bases though some values may be those of a salt).

Row | SMILES | melting point
1 | CC1=CC(=O)C(=Cc2ccc(O)cc2O)O1 | 239 to 242 °C
2 | O=C(O)c1cccn2c(=O)c3c(nc12)CCC3 | 189 to 193 °C
3 | COc1ccccc1SCCCCCC(=O)O | 81 to 82 °C
4 | NC(=O)N(O)CCNC(=O)c1ccc(Cl)cc1 | 172 to 173 °C
5 | CC1(C)CN(CCN2CC(C)(C)N(O)C(C)(C)C2=O)C(=O)C(C)(C)N1O | 193 °C
6 | CCCCCCCCCCCCCCCCN1C(=O)C2=C(c3cccs3)N(CCCCCCCCCCCCCCCC)C(=O)C2=C1c1cccs1 | 124 to 125 °C
7 | CNC1C=CC(C(C)C)C2CNCC12 (stereo not drawn) | 76 to 81 °C
8 | CC(NO)C(=O)OC(C)(C)C (stereo not drawn) | 69 to 70 °C
9 | COCCC1CCN(c2ccc(C#N)c3ccccc23)CC1 | 95 to 96 °C
10 | CC1(C)CCC(O)(c2ccc(=O)[nH]c2)CC1 | 210 to 211 °C
11 | O=c1[nH]c2cc(Cl)ccc2c(O)c1Sc1ccc([N+](=O)[O-])cc1 | > 300 °C
12 | Cc1ccc(-c2nc(-c3ccc(C)cc3)nc(-c3ccc(C)cc3)n2)cc1 | 282 to 285 °C
13 | CC(C)(C)OC(=O)CN(CBr)C(=O)c1ccccc1 | 98 to 102 °C
14 | CCOC(=O)c1ccc(SCCCC2CCN(c3ccc(Cl)nn3)CC2)cc1 | 96.3 °C
15 | C=CC1(O)CCC2(C)C(CCC3C2CCC2(C)C(OC)CCC32)C1 (stereo not drawn) | 104 to 111 °C
16 | CC1(C)Oc2cc([N+](=O)[O-])c(N)cc2[C@@H](N2CCCC2=O)[C@@H]1O (relative stereo) | 244 to 245 °C
17 | COC(=O)c1cc(S(=O)(=O)c2ccc(C)cc2)cc(OC)c1OC | 114 °C
18 | CN(C)CCC1CN(C)C(=S)c2cc([N+](=O)[O-])ccc2O1 (stereo not drawn) | 104 to 109 °C
19 | CC(=O)NC[C@H]1CN(c2ccc(N3CCC(n4nnc(N5CCOCC5)n4)CC3)c(F)c2)C(=O)O1 | 210 to 214 °C
20 | CCCC1(CCC)CCCc2c(Nc3ccc(Cl)cc3Cl)nc(C)nc21 | 238 to 244 °C
21 | CCC(COC(=O)c1ccc[nH]1)C1CN(C)C2Cc3cn(C)c4cccc(c34)C2(OC)C1 (stereo not drawn) | 96 to 98 °C
22 | CCSc1nc(O)nn1C(C)C | 109 to 114 °C
23 | CN1CCN(C2=C3CSCC34CC(=CC#N)C=CC4=NC=C2)CC1 (stereo not drawn) | 90 to 92 °C
24 | CC(=O)COc1cc2oc(=O)cc(C)c2cc1C | 190 °C
25 | CO/C=C1/C(=O)NC(=O)c2ccc(Br)cc21 | 210 to 211 °C
26 | CCN(Cc1ccc(Cl)nc1)C1=C([N+](=O)[O-])C2CCC(O2)N1C (stereo not drawn) | 125 to 126 °C

Row | SMILES | melting point
27 | Cc1cnc2c(NC(=O)c3c(Cl)cccc3Cl)cccc2c1N1CCN(C)C1=O | 288 °C
28 | O=C1CCc2c(Cl)cc(Cl)c(I)c21 | 170 to 172 °C
29 | S=c1n(N=Cc2ccccc2)ccn1N=Cc1ccccc1 | 215 to 218 °C
30 | c1cc2c3c(ccc2[nH]1)NCC3 | 183 to 186 °C
31 | NP(N)(=S)N1CCCC1 | 95 to 99 °C
32 | CC(C)(N)CNC(N)=O | 58 to 62 °C
33 | COc1ccccc1C(NCC(=O)Nc1c(C(C)C)cccc1C(C)C)c1ccccc1 (stereo not drawn) | 133 to 134 °C
34 | CC1(C)CCCC(C)(C)N1c1nc(Cl)cc(N2CCCC2)n1 | 130 to 135 °C
35 | COc1ccc2c(c1)C1=C(SCC3(CCN(Cc4ccc(F)cc4)CC3)O1)C(=O)C2=O | 196 to 197 °C
36 | COc1cc2c(cc1C)CCC=C2c1ncc[nH]1 | 197 to 229 °C
37 | CCN(CC)S(=O)(=O)c1cc(C(=O)CCl)ccc1Cl | 63 to 65 °C
38 | CCOC(Cc1ccc(NCCc2ccc(OS(C)(=O)=O)cc2)cc1)C(=O)O (stereo not drawn) | 130 to 134 °C
39 | CCC(CC)(C(N)=O)c1ccc(Cl)cc1 | 107 to 109 °C
40 | O=C(CCC(=O)N1CCC[C@H]1C(=O)O)c1ccc(Br)s1 | 166 to 168 °C
41 | N#Cc1ccc(N2C(=O)NC(CO)(CO)C2=O)cc1C(F)(F)F | 207 to 208 °C
42 | Cc1cnc(C)c(Cl)c1N | 82 to 83 °C
43 | ClC(Cl)c1cccc2nnsc12 | 131 to 133 °C
44 | COc1ccc2[nH]ncc2c1Br | 178 to 180 °C
45 | CCOc1ccc2c(c1)n(CCN1CCOCC1)c(=O)n2S(=O)(=O)c1ccc(OC)cc1OC | 146 to 149 °C
46 | C=CCSCCON=C(C(=O)OCC)c1csc(NC=O)n1 | 62 to 64 °C
47 | O=C(CCN1C(=O)CSC1=S)Nc1ccccc1[N+](=O)[O-] | 170 to 171 °C
48 | CCOC(=O)CCCc1cn(C(c2ccccc2)(c2ccccc2)c2ccccc2)cn1 | 134 °C
49 | CCn1c(=O)c2[nH]c(/C=C/c3cc(F)cc(F)c3)nc2n(CC)c1=O | > 280 °C
50 | CCOC(=O)c1c(C(F)(F)F)nc(C(F)F)c(C(=O)OC)c1-n1cccn1 | 42 to 52 °C
51 | CCOC(=O)c1cn(NCC(=O)OC)c2cc3c(cc2c1=O)OCO3 | 142 to 145 °C

Further lines, results first:

Row | melting point | SMILES
52 | 52 to 55.6 °C | Cc1ccc(Nc2ccnc(-n3nc(C)cc3C)n2)cc1
53 | 271 to 272 °C | Cc1c(Cc2cccc(C(F)(F)F)c2)sc2c(-c3cc(C(=O)O)ccn3)cccc12
54 | 215 to 217 °C | COc1cccc2c(=O)c(OCC(=O)O)coc12
55 | 133 to 135 °C | COc1ccc(C2=NN(C(c3ccccc3)c3ccccc3)C(=O)[C@H]3CCCC[C@@H]23)cc1OC (relative stereo)
56 | 94 °C | CCOC(=O)Cc1ccc(SCc2cc(C)ccc2C(=O)O)cc1
57 | 209 to 210 °C | NC(=O)CCCCCOc1cc2ccc(-c3ccc(C(=O)O)cc3)cc2cc1C12CC3CC(CC(C3)C1)C2
58 | 165 to 168 °C | CC(=O)NC[C@H]1CN(c2ccc(N3C[C@H]4CN(C(=O)OCc5ccccc5)C[C@H]4C3)c(F)c2)C(=O)O1
59 | 108 to 112 °C | O=C1NC(=O)C(C2CCc3cc(O)ccc32)S1 (stereo not drawn)
60 | 140 to 142 °C | C=CCC(=O)c1cnn(-c2ccccn2)c1S(N)(=O)=O
61 | 257 to 258 °C | NC(=O)c1cc2c(C=Cc3ccccc3)cncc2s1
62 | 190 to 191 °C | Cn1cnc(-c2ccc(NC(=C3C(=O)Oc4ccccc43)c3ccc(C4(N)CC4)cc3)cc2)c1
63 | 210 to 211 °C | CN1CC(c2ccc(OCc3ccc(F)cc3)cn2)=C(O)C1=O
64 | 179 to 181 °C | CCc1nc2c(N)nc3ccccc3c2n1CC#Cc1ccc(OC)cc1
65 | 178 to 180 °C | CN(C)S(=O)(=O)c1ccc(-c2ccc(N)cc2)cc1
66 | 215 to 217 °C | CC1COc2cnc3cc(Cl)ccc3c2N1 (stereo not drawn)
67 | 78 to 80 °C | CCOC(=O)COc1cc(F)ccc1C(=O)NCc1cccc([N+](=O)[O-])c1
68 | 157 to 159 °C | O=C(O)C=CC(=S)c1ccc(-c2ccccc2)cc1
69 | 56 to 57 °C | COc1ccc(F)c([C@@H]2C[C@H]2CNC(=O)C(C)C)c1 (relative stereo)
70 | 118 to 120 °C | C[C@@H]1CN(c2nccc(Oc3ccc(NC(=O)c4cc(F)cc(N5CCOCC5)c4)c4ccccc34)n2)C[C@H](C)O1
71 | 69 to 70 °C | CC(=O)N1CCC(Oc2ccc(N3CCCC3)cc2)CC1
72 | 104 to 106 °C | CCN(C1CC(C)(C)Oc2ccc(OCc3ccccc3)cc21)S(C)(=O)=O (stereo not drawn)
73 | 165 °C | CCOC(=O)C1=C(C)NN=C(C(=O)OC)C1c1ccccc1C (stereo not drawn)
74 | 101 to 102 °C | C=C1CC(COc2cccc3cccnc23)(c2ccccc2)OC1=O (stereo not drawn)
75 | 135 to 137 °C | CCOC(=O)c1cc(Cl)n2nc(-c3ccccc3)cc2n1
76 | 199 to 203 °C | COc1cc(C(C)C)c(Oc2cnc(N)nc2N)cc1-c1ccco1
77 | 141 to 143 °C | O=C(O)[C@H]1C=C[C@H](c2ccccc2)n2c(=O)n(CCCl)c(=O)n21 (relative stereo)

Row | melting point | SMILES
78 | 203 °C | OC1CSC(Oc2cncc(-c3cccnc3)c2)C(O)C1O (stereo not drawn)
79 | 109 to 110 °C | O=C(OCCCc1ccc(OCc2ccc(Cl)cc2)cc1)c1cccnc1
80 | 177 to 178 °C | Cc1nc(-c2ccc(-c3cscn3)c(C)c2)c(-c2ccc(S(C)(=O)=O)c(F)c2)o1
81 | 201 to 203 °C | O=C(Nc1ccc2[nH]c(=O)sc2c1)C(=O)N1CCC(Cc2ccccc2)CC1
82 | 72 to 73 °C | CC(Br)c1ccc(-n2nccn2)cn1 (stereo not drawn)
83 | 108 to 109 °C | OC[C@H]1C[C@@H]2c3ccccc3Oc3ccc(F)cc3[C@H]2N1
84 | 110 °C | Cc1cccc(NC(=O)NCC(=O)N(CC(=O)OC(C)(C)C)c2cccc(Cl)c2)c1
85 | 108 to 109 °C | CCOC(=O)c1nn(-c2ccc(OC)cc2)c2c1CCC2
86 | 183 to 184 °C | CC(C)C[C@H](NC(=O)OCC1c2ccccc2-c2ccccc21)C(=O)OC(C)(C)C
87 | 266 to 268 °C | O=c1[nH][nH]c(C(F)(F)F)c1Cc1ccc2nccnc2c1
88 | 201 °C | O=C(O)C1(S(=O)(=O)c2ccc(Oc3ccc(Cl)cc3)cc2)CCN(Cc2ccccc2)CC1
89 | 192 to 193 °C | O=C(O)c1[nH]c(-c2ccccc2)cc1-c1ccc(O)cc1
90 | > 175 °C | O=c1n(O)ccn1Cc1ccc(OCc2ccccc2)cc1
91 | 227 °C | COC(=O)C1=C(C)NC(C)=C(c2nc(CS(=O)(=O)Cc3ccccc3)no2)C1c1cccc([N+](=O)[O-])c1 (stereo not drawn)
92 | 121 to 122 °C | O=C(Nc1ccc(N2C[C@H]3CN(C(=O)OCc4ccccc4)C[C@H]3C2)c(F)c1)OCc1ccccc1
93 | 79 to 81 °C | O=C(NCCCCCCCCn1ccnc1)c1ccc(Cl)nc1
94 | 189 °C | Cc1ccc(C(=O)c2cc(-c3ccc(S(C)(=O)=O)cc3)c(N3CCOCC3)s2)cc1
95 | 174 to 176 °C | CN(C)C(=O)Cc1c(-c2ccc(Cl)cc2)nn2cccnc12
96 | 152 to 153 °C | Cc1nnc(-c2ccc3occ(-c4ccc(C(=O)N(C)C)c(F)c4)c3c2)o1
97 | 137 to 138 °C | CCOC(=O)c1cn(Cc2ccccc2)nc1OCc1ccc(OCc2nc(-c3ccco3)oc2C)cc1OC
98 | 88 to 97 °C | CC1(C)c2ccc(C(O)CN3CCN(c4nsc5ccccc45)CC3)cc2C(C)(C)C1O (stereo not drawn)
99 | 240 to 242 °C | CC(=O)Nc1ccc(Cn2cnc3c(Cl)ncnc32)cc1
100 | 106 to 116 °C | CC(=O)Nc1ccc(Cl)cc1C(=O)c1c(F)cccc1F
101 | 49 to 50 °C | c1ccc(OCc2ccsc2)cc1
102 | 186 °C | COCC(Cl)c1nc2c(C(F)(F)F)cccc2c(O)c1C(=O)Nc1nccs1 (stereo not drawn)
103 | 127 to 128 °C | O=C(C1=Cc2ccccc2Oc2ccccc21)N1CCCCC1
